Reference: patent US7981939B2, “Application of 2-bromide-isovanillin for the manufacture of a medicament for anti-cancer or/and radiation/chemotherapy sensitization” (Institute of Radiation Medicine, Academy of Military …, priority 2005, dated 2011)

Tests used:
[1] = tested on: human cervical cancer cell line HeLa; experiment: MTT assay, proliferation of HeLa cells; type: cell-based; conditions: for effect on the proliferation of HeLa cells: concentrations of less than 40 μmol/L, up to 72 hrs
Description: Human cervical cancer cell line HeLa, human liver cancer cell line HepG2/7221/7402, human ovarian cancer cell line HOC8/A2780, human glioma cell line BT325, lung cancer cell line A549, brain metastatic lung cancer cell line BT72 and normal human hepatic cell line LO2 were all grown in DMEM liquid medium supplemented with 10% newborn calf serum. Human leukemia cell line Jurkat was grown in 1640 medium supplemented with 10% newborn calf serum. The above cell lines were cultured in a CO2 incubator at 5% CO2 at 37° C.
By way of example, human cervical cancer cell line HeLa was used to study the effect of vanillin on the proliferation of cancer cells by MTT assay. Specifically, human cervical cancer cells HeLa were seeded into a 96-well plate at a density of 5×10^3 cells/well, and were divided into four groups. To each of the groups vanillin was added at a concentration of 0, 100, 250 or 500 μmol/L, respectively, and was allowed to grow for 4 days. Using the MTT assay, the optical density (OD) values at 490 nm were measured and recorded every day, wherein the OD value is indicative of the number of cells, i.e., the proliferation of cells.
By way of example, human cervical cancer cell line HeLa was used to study the effect of several vanillin derivatives for 72 hrs on the proliferation of cancer cells by MTT assay. Specifically, human cervical cancer cells HeLa were seeded into a 96-well plate at a density of 5×10^3 cells/well, and were divided into four groups. To each of the groups were added increasing concentrations (0, 10, 20, 30, 40 μmol/L) of vanillin derivatives ethyl vanillin (Code No. VAND3206), 4-methoxy vanillin (Code No. VAND3207), isovanillin (Code No. VAND3209) and 2-bromo-isovanillin (Code No. VAND3208), and the cells were cultured for 72 hrs. Using the MTT assay, the optical density (OD) values at 490 nm were measured and recorded every day, wherein the OD value is indicative of the number of cells, i.e., the proliferation of cells.
By way of example, human cervical cancer cell line HeLa was used to study the inhibitory effect of 2-bromo-isovanillin at different concentrations for different periods of time on the proliferation of cancer cells by MTT assay. Specifically, human cervical cancer cells HeLa were seeded into a 96-well plate at a density of 5×10^3 cells/well, and were divided into […]. To each of the groups 2-bromo-isovanillin was added at a concentration of 0, 10, 20, 30, 40 or 50 μmol/L, and was cultured for 14 days, respectively. Using the MTT assay, the optical density (OD) values at 490 nm were measured and recorded every day, wherein the OD value is indicative of the number of cells, i.e., the proliferation of cells.

[2] = molecular target: T1, nuclear protein DNA-PKcs serine/threonine protein kinase (Homo sapiens, UniProt P78527); experiment: DNA-PKcs kinase activity in nuclear protein of treated HepG2 cells; type: cell-based; conditions: HepG2, 100 μmol/L, 24 hrs
T1 construct: adding nuclear proteins to the solid phase reaction system; endogenous in cells; host or cells: HepG2 human liver cancer cells (nuclear protein extract)
Description: The activity of nuclear protein DNA-PKcs serine/threonine protein kinase in human liver cancer cells HepG2 treated with 0, 10, 20, 40, 100 μmol/L 2-bromo-isovanillin for 24 hrs was determined by using […] DNA dependent protein kinase assay kit (Promega), according to the manufacturer's instructions, and the treatment with 100 μmol/L vanillin for the same period of time served as control. Basically, the assay was carried out by immobilizing the phosphorylation substrate specific to DNA-PKcs, i.e., a peptide derived from p53 protein onto a cellulose membrane, adding nuclear proteins to the solid phase reaction system, isotopically labeling the substrate by phosphorylation using γ-^32P ATP, removing non-specific signals after the isotope labeling, and visualizing the kinase activity upon X-ray film developing.

| Structure (SMILES) | concentration at which proliferation of cancer cells was effectively inhibited ([1]; HeLa, 0-500 μmol/L, 4 days, OD at 490 nm) | inhibitory effect on DNA-PKcs kinase activity compared with 2-bromo-isovanillin [2] | effect on the proliferation of HeLa cells [1] |
| --- | --- | --- | --- |
| COc1cc(C=O)ccc1O [vanillin] | above 250 μmol/L | significantly weaker |  |
| COc1ccc(C=O)cc1O [VAND3209, isovanillin] |  |  | no inhibitory effect |
| CCOc1cc(C=O)ccc1O [ethyl vanillin] |  |  | no inhibitory effect |
